The source of these data is patent US20210333285A1, “DETECTION OF PHOSPHOKINASE SIGNATURES” (The Regents of the University of California, priority 2018, published 2021).

The subject of one assay is Sk-Mel-28. Description: 3-day CellTiter-Glo cell viability assay. The assay is classed as cell-based. The conditions noted are these: read-out: GI50, drug alone. The procedure: (§1) To assess the growth/survival response of cell lines to single or combinatorial drug treatments in FIGS. 2-3 and FIGS. 20, 22, 28, 29, we used CellTiter-Glo cell viability assay (Promega; cat #G7571). Cell culture and luminescence readouts were performed in 96- and 384-well plates after 3-day treatments. Drug treatment conditions are described in the text. The effects of drug combinations on cell growth were assessed by calculating drug interaction (D.I.; two-way ANOVA using Prism or Sigma Plot software) and combination index (C.I.; following either the Loewe Additivity^6-9 or Bliss Independence models^[…]). […] We systematically tested the effects of drugs in both regular and low serum culture conditions (i.e. 5% and 0.25% FBS media). To quantitate cell death in FIG. 3 and FIGS. 28-29, FACS analysis of nuclear degradation was performed as previously described^13. Colony formation assay in FIG. 3 and FIG. 30 were performed as previously described^5.
In general terms: ATP-based viability assays read luminescence as a measure of living cells.

The next assay concerns A375. The assay is described as follows: 3-day CellTiter-Glo cell viability assay. The assay is classed as cell-based. The conditions noted are these: read-out: GI50, drug alone. The procedure:
as §1

In assay [1] the test system is BRAF^V600E melanoma cell lines. Description: Growth response to drug combinations with VEM (Bliss combination index). It counts as cell-based. The conditions noted are these: A375 and Sk-Mel-28; VEM + 2nd drug.
From the text: (a) Summary of possible cell responses to the combination of two drugs. The heatmap on the left represents the experimental effects of combining increasing concentrations of drug A+B as changes in cancer cell growth. The middle graph is a conceptual representation of how differences in effects of drugs alone or combined can be interpreted as either synergistic, additive, or antagonistic (derived from^10). The heatmap on the right represents the calculated combination index from all experimental cell growth data points. We decided to analyze experimental profiles using the Bliss Independence model to calculate combination indices (CI) and avoid inaccuracies from dose-effect curve estimations (CI=log 2 (Eab/(Ea*Eb); synergy CI<0; additivity CI=0; antagonism CI>0) 10-12. (b) Maps of cell growth responses (left) and combination indices (right). We tested the dependency of BRAF^V600E melanoma cell lines for kinases found as differentially active by HT-KAM in patient tumors (FIG. 26a,b). We included everolimus or trametinib (bottom two rows) as experimental ‘positive’ controls and for side-by-side comparison of the effects of other kinase-targeting drugs we tested. Arrows located above and on the left of each cell growth heatmaps serve as indicators of GI50 concentrations for each drug alone.
as §1

Another assay concerns the target T1, AKT1 (Homo sapiens, UniProt P31749).
T1 construct: purchased SignalChem A16-10G
The assay is described as follows: HT-KAM ATP-consumption kinase activity assay with inhibitors. The following applies: control assays, data not shown. It counts as biochemical.

A further assay deals with M061R.X1. CL. Description: 3-week colony formation assay. The following applies: PDX-derived cell line without high RPS6KB1. The assay is classed as cell-based.
From the text: (§2) (a-b) Phospho-RPS6KB profiles of two patient-derived xenografts (PDXs) tumor tissues (a) and related cell lines (b). PDXs were previously^4,5 established from patients refractory to BRAF^V600E-therapy. A limited number of primary cell lines were derived from these PDX's. (c) Sensitivity of primary melanoma cell lines to RPS6KB-inhibitor PF-4708671 in 3-week colony formation assays.
as §1

The subject of another assay is M032R6.X1. CL. Description: 3-week colony formation assay. The conditions noted are these: PDX-derived cell line with high RPS6KB1. The assay is classed as cell-based.
From the text: as §2, §1

Another assay addresses LCK (Homo sapiens, UniProt P06239). The following applies: literature reports; cited from earlier work.
A further assay has as its system WiDr cells. Description: 3-day cell viability assay. The assay is classed as cell-based. The conditions noted are these: Homo sapiens, 72 h, read-out: GI50 concentration.
From the text: FIG. 20. Response of BRAF^V600E CRC cells to targeted therapy combinations. To validate the kinase activity signatures of VEM-resistant WiDr cells found by HT-KAM screen, and as a mean to assess the role of these kinases (AKT1, PDPK1, PRKCA, SGK1) as mediators of the response to VEM and their potential value as druggable vulnerabilities in our model, we used 3-day cell viability assays to monitor the response of cells to drug combinations.
as §1

For the next assay, the system named is A375 myrAKT1 cells. The assay is described as follows: 3-day cell viability assay, myrAKT1-expressing cells. The assay is classed as cell-based. The conditions noted are these: myrAKT1-expressing vs control counterpart; p=2.77E-06.
From the text: FIG. 29. A375 expressing a constitutively active AKT1 oncogenic kinase remain sensitive to RPS6KB- or PIM-targeting. We exogenously expressed myrAKT1 (i.e. a constitutively active oncogenic AKT1) in A375 cells. We then tested the sensitivity of A375 myrAKT1 cells to drug combinations.
as §1

[2] abbreviates: Homo sapiens, SK-MEL-28, 72 h, 0.25% FBS media.
Where [3] appears, read: Homo sapiens, SK-MEL-28, 72 h, 5% FBS media.
The mark [4] stands for this setting: Homo sapiens, A-375, 72 h, 0.25% FBS media.
Where [5] appears, read: Homo sapiens, A-375, 72 h, 5% FBS media.

Structures are written as SMILES. Read-outs that look alike come from different tables or passages of the source.

T1 sequence (P31749 whole entry): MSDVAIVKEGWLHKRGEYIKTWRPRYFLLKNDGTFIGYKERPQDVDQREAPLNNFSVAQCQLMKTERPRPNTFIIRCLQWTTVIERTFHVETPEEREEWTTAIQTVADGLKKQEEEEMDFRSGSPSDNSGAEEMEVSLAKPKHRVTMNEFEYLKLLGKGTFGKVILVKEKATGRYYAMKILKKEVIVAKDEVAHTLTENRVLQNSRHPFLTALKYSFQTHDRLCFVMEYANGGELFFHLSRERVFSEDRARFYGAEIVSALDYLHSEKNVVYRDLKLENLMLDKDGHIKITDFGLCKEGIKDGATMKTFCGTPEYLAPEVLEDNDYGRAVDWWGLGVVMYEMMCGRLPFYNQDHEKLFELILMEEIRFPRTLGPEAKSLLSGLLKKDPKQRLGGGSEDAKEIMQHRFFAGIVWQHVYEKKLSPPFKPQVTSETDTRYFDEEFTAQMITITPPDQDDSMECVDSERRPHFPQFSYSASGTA
Chain of LCK (P06239 whole entry, species assumed): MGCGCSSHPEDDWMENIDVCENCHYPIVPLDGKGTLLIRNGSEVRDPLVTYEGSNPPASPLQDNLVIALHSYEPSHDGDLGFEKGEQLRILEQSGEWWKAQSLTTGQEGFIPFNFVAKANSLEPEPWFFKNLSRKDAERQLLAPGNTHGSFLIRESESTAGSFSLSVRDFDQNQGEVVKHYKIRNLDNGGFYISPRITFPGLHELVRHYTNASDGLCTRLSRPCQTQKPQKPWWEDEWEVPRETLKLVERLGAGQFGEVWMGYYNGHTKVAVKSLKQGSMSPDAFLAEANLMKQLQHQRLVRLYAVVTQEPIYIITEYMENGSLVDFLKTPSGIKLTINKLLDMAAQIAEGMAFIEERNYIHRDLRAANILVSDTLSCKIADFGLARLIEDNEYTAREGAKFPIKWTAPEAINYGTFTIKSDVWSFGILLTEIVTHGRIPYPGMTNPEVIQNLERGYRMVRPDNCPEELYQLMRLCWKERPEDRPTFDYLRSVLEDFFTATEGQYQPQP

Turning to `O=C1Cc2c([nH]c3ccc(Br)cc23)-c2ncccc2N1` [1-Azakenpaullone], the GI50 was 10 µM in the assay with Sk-Mel-28 (0.25% FBS media), 20 µM in the assay with Sk-Mel-28 (5% FBS media), 2.5 µM in the assay with A375 (0.25% FBS media) and 20 µM in the assay on A375 (5% FBS media). The “effect of combination with VEM on cell growth / combination index” value (“effect … on cell growth / combination index” for short) in assay [1] is on record as “antagonizing the effects of VEM treatment”.
Turning to `N[C@@H]1CCCN(c2c(/C=C3\SC(=O)NC3=O)cccc2-c2ccccc2)C1` [AZD1208], the GI50 came to 25 µM in the assay with Sk-Mel-28 (0.25% FBS media), 25 µM with Sk-Mel-28 (5% FBS media), 12.5 µM with A375 (0.25% FBS media) and 12.5 µM in the assay with A375 (5% FBS media). Further, the “effect … on cell growth / combination index” value in assay [1] is “strong growth inhibitory effects”.
As for `CC(C)CCN1c2nc(Nc3cc(F)c(O)c(F)c3)ncc2N(C)C(=O)C1C` (stereo not shown) [BI-D1870], the GI50 was 12.5 µM in the assay with Sk-Mel-28 (0.25% FBS media), 25 µM in the assay on Sk-Mel-28 (5% FBS media), more than 50 µM with A375 (0.25% FBS media) and 12.5 µM in the assay with A375 (5% FBS media). Further, the “effect … on cell growth / combination index” value in assay [1] is “additive effects only”.
`COc1ccc2c(c1)c(C1=C(c3c[nH]c4ccccc34)C(=O)NC1=O)cn2CCCN(C)C` [Go6983]: the “effect … on cell growth / combination index” value in assay [1] is “limited additivity effects”.
As for `Cn1cc(-c2ccc(F)c(C(F)(F)F)c2)nc1C1CCN(c2ncnc3[nH]ncc23)CC1` [LY2584702], the GI50 in the assay with Sk-Mel-28 (setting [2]) was 100 µM; with Sk-Mel-28 (setting [3]), 100 µM; in the assay on A375 (setting [4]), more than 200 µM; in the assay with A375 (setting [5]), 50 µM. Also, in assay [1], the “effect … on cell growth / combination index” value is on record as “strong growth inhibitory effects”.
For `NC1(c2ccc(-c3nc4ccn5c(=O)[nH]nc5c4cc3-c3ccccc3)cc2)CCC1` [MK2206], on AKT1, the “effect on AKT1 activity” value was “effectively decreased AKT1 activity”. The GI50 with Sk-Mel-28 (setting [2]) was 5 µM; in the assay on Sk-Mel-28 (setting [3]), 2.5 µM; with A375 (setting [4]), 2.5 µM; in the assay on A375 (setting [5]), 10 µM.
`CCc1cncnc1N1CCN(Cc2nc3ccc(C(F)(F)F)cc3[nH]2)CC1` [PF-4708671]: the “sensitivity in colony formation” value with M061R.X1. CL was “not sensitive”; in the assay on M032R6.X1. CL, “sensitive”. Moreover, the GI50 was 16 µM in the assay on Sk-Mel-28 (0.25% FBS media), 32 µM with Sk-Mel-28 (5% FBS media), 16 µM in the assay with A375 (0.25% FBS media) and 32 µM with A375 (5% FBS media). Further, in [1], the “effect … on cell growth / combination index” value was “strong growth inhibitory effects”.
As usually defined, the IC50 is the concentration that inhibits the measured activity by half. `CN(C)S(=O)(=O)c1ccc2c(c1)/C(=C/c1cc3c([nH]1)CCCC3)C(=O)N2` [SU6656]: the IC50 at LCK is more than 5 µM.
For `CN1CCN(c2nc(C3=C(c4c[nH]c5ccccc45)C(=O)NC3=O)c3ccccc3n2)CC1` [Sotrastaurin, sotrastaurin], the “effect … on cell growth / combination index” value in assay [1] was “limited additivity effects”.
As for `CCCS(=O)(=O)Nc1ccc(F)c(C(=O)c2c[nH]c3ncc(-c4ccc(Cl)cc4)cc23)c1F` [VEM, vemurafenib], the GI50 amounted to 0.31 µM with Sk-Mel-28 (setting [2]); 0.63 µM in the assay on Sk-Mel-28 (setting [3]); 0.02 µM with A375 (setting [4]); 0.15 µM with A375 (setting [5]); 2 µM in the assay on WiDr cells. The “increase in GI50 versus control A375” value in the assay with A375 myrAKT1 cells was 65%.
Regarding `CO[C@H]1C[C@@H]2CC[C@@H](C)[C@@](O)(O2)C(=O)C(=O)N2CCCC[C@H]2C(=O)O[C@H]([C@H](C)C[C@@H]2CC[C@@H](OCCO)[C@H](OC)C2)CC(=O)[C@H](C)/C=C(\C)[C@@H](O)[C@@H](OC)C(=O)[C@H](C)C[C@H](C)/C=C/C=C/C=C/1C` [everolimus], the GI50 in the assay with Sk-Mel-28 (setting [2]) amounted to 10 µM; in the assay with Sk-Mel-28 (setting [3]), 10 µM; with A375 (setting [4]), 10 µM; in the assay with A375 (setting [5]) it was 5 µM.
Take `CC(=O)Nc1cccc(-n2c(=O)n(C3CC3)c(=O)c3c(Nc4ccc(I)cc4F)n(C)c(=O)c(C)c32)c1` [trametinib]: the GI50 stood at 0.01 µM in the assay with Sk-Mel-28 (setting [2]), 0.01 µM with Sk-Mel-28 (setting [3]), 0.0025 µM with A375 (setting [4]) and 0.005 µM in the assay with A375 (setting [5]).
